Experimental data published in patent US9527847B2, “Treatment of lupus, fibrotic conditions, and inflammatory myopathies and other disorders using PI3 kinase inhibitors” (INFINITY PHARMACEUTICALS, INC., priority 2012, dated 2016).

What was measured:
[1] = system: Human B-cell proliferation; assay: Human B-cell proliferation; format: cell-based
[2] = system: TL2/TLR6 (PAM2CSK4 induced cytokines); assay: PAM2CSK4 induced cytokine production in PBMCs; format: cell-based, human
Protocol: (§1) These experiments were conducted using PBMCs.

B cell proliferation = B cell proliferation EC50 (Table 3); format: cell-based; details: in vitro
[3] = system: Murine B-cell proliferation; assay: Murine B-cell proliferation; format: cell-based; details: Mus musculus
[4] = system: PI3K-δ specific basophil activation; assay: Anti-fCER1 BAT (delta), basophil activation in human whole blood; format: cell-based; details: Table 5
[5] = system: Human T-cell proliferation; assay: Human T-cell proliferation; format: cell-based
LPS induced cytokines = assay: LPS induced cytokine production in PBMCs; format: cell-based, human
Protocol: as §1

PI3K-δ = PI3K-δ (Homo sapiens, UniProt O00329); assay: One exemplary assay, PI3K-δ activity; format: biochemical; details: overall, several assays
Sequence of PI3K-δ (O00329 whole entry, species assumed): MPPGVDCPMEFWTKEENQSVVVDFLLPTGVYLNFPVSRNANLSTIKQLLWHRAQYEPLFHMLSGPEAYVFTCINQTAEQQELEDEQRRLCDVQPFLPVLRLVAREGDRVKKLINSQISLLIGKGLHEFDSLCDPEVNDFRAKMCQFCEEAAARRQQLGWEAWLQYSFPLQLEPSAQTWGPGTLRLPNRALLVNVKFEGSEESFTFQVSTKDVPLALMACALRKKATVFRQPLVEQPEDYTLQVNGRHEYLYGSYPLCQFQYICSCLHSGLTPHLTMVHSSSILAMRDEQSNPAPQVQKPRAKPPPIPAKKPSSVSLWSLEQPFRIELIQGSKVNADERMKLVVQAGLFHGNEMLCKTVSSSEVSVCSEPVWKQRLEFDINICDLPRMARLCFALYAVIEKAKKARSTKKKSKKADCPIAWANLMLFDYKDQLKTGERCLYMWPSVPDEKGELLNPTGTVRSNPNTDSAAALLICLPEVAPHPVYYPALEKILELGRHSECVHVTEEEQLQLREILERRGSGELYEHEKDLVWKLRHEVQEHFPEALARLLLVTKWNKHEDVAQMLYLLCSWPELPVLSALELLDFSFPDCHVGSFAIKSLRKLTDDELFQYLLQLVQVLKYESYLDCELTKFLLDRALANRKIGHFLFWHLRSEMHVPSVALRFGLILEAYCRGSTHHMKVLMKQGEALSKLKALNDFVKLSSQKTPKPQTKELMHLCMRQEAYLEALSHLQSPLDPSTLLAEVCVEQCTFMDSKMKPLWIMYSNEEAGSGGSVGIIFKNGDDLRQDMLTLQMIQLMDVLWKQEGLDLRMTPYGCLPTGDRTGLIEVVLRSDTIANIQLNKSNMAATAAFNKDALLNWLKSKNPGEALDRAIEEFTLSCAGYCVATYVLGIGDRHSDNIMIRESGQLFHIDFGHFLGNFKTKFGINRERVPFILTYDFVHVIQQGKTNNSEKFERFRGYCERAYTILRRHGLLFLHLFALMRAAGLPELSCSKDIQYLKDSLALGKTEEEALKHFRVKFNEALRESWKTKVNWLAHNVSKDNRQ
Sequence of PI3K-δ (P27986 whole entry partner, species assumed): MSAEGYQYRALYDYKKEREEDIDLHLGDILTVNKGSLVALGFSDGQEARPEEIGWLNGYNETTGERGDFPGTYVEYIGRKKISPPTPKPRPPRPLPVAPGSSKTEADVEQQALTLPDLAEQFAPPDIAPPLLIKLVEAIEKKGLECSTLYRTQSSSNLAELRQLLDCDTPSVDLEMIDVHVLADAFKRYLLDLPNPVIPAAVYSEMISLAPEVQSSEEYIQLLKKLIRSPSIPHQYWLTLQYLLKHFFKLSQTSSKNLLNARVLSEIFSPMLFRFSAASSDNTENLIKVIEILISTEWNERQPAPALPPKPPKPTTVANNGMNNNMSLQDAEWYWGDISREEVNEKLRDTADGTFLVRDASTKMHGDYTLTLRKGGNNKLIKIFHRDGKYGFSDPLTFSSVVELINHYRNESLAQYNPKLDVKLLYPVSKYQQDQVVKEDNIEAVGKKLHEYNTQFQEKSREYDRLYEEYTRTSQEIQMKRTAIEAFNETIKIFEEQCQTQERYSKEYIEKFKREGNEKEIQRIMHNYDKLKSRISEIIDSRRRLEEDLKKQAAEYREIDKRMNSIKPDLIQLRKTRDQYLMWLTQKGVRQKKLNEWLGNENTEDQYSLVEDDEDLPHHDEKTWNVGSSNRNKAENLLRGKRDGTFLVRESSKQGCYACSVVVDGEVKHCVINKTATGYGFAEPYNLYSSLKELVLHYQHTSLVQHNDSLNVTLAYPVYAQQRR

R848 induced cytokines = assay: R848 induced cytokine production in PBMCs; format: cell-based, human
Protocol: as §1

[6] = system: female C.B-17 SCID mice injected with CD45RBhigh cells; assay: CD4+ Inflammatory Bowel Disease (IBD) model in SCID mice; format: in vivo, mouse
Protocol: In this murine model, female C.B-17 SCID mice are injected intraperitoneally (IP) with CD45RB^high cells, a subset of CD4^+ T cells obtained from normal BALB/c mice, to induce spontaneous chronic inflammation in the large intestine. Gross and histopathologic changes resulting from this treatment resemble those occurring in Crohn's disease and ulcerative colitis in humans.
On study day 0, Balb/C mice were terminated, and spleens were obtained for CD45RB^high cell isolation per the SCID IBD cell separation protocol. SCID mice were weighed and received intraperitoneal (IP) injections of the sorted cells (approx. 4×10^6 cells/ml, 100 μl/mouse injections). On study day 21, mice were weighed and randomized by body weight loss into treatment groups, and daily (QD), oral (PO) dosing was initiated. Dosing continued through study day 41, and mice were terminated on day 42.
For each animal, the entire colon (proximal and distal) was trimmed into 8 equally spaced pieces for processing and embedding. Sections were stained with hemotoxylin and eosin (H&E). For each H&E stained section, submucosal edema was quantitated by measuring the distance from the muscularis mucosa to the internal border of the outer muscle layer in a non tangential area thought to most represent the severity of this change. Mucosal thickness was also measured in a non-tangential area of the section that best represented the overall mucosal thickness. This parameter is indicative of gland elongation and mucosal hyperplasia.
Parameters that were scored using percent involvement included: (1) Colon glandular epithelial loss—this includes crypt epithelial as well as remaining gland epithelial loss; and (2) Colon Erosion—this reflects loss of surface epithelium and generally is associated with mucosal hemorrhage (reflective of the bleeding seen clinically and at necropsy).
The 4 important scored parameters (inflammation, glandular epithelial loss, erosion, hyperplasia) were ultimately summed to arrive at a sum of histopathology scores, which indicates the overall damage and would have a maximum score of 20.
Inflammatory cell infiltrates in the colonic mucosa were evaluated for approximate % of neutrophils in the total infiltrate using the criteria below.
This value was then multiplied by the inflammation score in an attempt to semiquantify relative PMN infiltration across sections and animals.

C[C@H](Nc1ncnc2[nH]cnc12)c1cc2cccc(Cl)c2c(=O)n1-c1ccccc1 [Compound 292]
EC50 [1]: 0.5 nM
PAM2CSK4 induced IL-1 production [2]: Inhibited
PAM2CSK4 induced IL-6 production [2]: Inhibited
PAM2CSK4 induced IL-8 production [2]: Inhibited
PAM2CSK4 induced TNF-α production [2]: Inhibited
EC50 (B cell proliferation): < 100 nM
EC50 [3]: 0.5 nM
EC50 [4]: 78 nM
EC50 [5]: 9.5 nM
LPS induced IL-1 production (LPS induced cytokines): enhanced
LPS induced IL-6 production (LPS induced cytokines): enhanced
LPS induced IL-8 production (LPS induced cytokines): did not detectably affect
LPS induced TNF-α production (LPS induced cytokines): enhanced
PI3K-δ inhibited at lower dose compared to PI3K-γ, PI3K-β or PI3K-α (PI3K-δ): at least 10 fold
R848 induced IFN-α (R848 induced cytokines): did not detectably affect
R848 induced IL-1 (R848 induced cytokines): slightly inhibited
R848 induced IL-6 (R848 induced cytokines): did not detectably affect
R848 induced IL-8 (R848 induced cytokines): did not detectably affect
R848 induced TNF-α (R848 induced cytokines): did not detectably affect
Colon hyperplasia reduction ([6]; 1 mg/kg PO QD, total colon): 32%
Mucosal thickness reduction ([6]; 1 mg/kg PO QD, total colon): 31%
Colon weight reduction toward normal ([6]; 1 mg/kg PO QD, vs vehicle): 34%
Colon inflammation reduction ([6]; 3 mg/kg PO QD, distal colon): 42%
Gland loss reduction ([6]; 3 mg/kg PO QD, distal colon): 52%
Hyperplasia reduction ([6]; 3 mg/kg PO QD, distal colon): 61%
Mucosal thickness reduction ([6]; 3 mg/kg PO QD, distal colon): 64%
Neutrophil score reduction ([6]; 3 mg/kg PO QD, distal colon): 66%
PMN percent reduction ([6]; 3 mg/kg PO QD, distal colon): 56%
Summed histopathology score reduction ([6]; 3 mg/kg PO QD, distal colon): 52%
Colon inflammation reduction ([6]; 3 mg/kg PO QD, proximal colon): 19%
Gland loss reduction ([6]; 3 mg/kg PO QD, proximal colon): 24%
Hyperplasia reduction ([6]; 3 mg/kg PO QD, proximal colon): 37%
Mucosal thickness reduction ([6]; 3 mg/kg PO QD, proximal colon): 36%
Neutrophils score reduction ([6]; 3 mg/kg PO QD, proximal colon): 43%
PMN percent reduction ([6]; 3 mg/kg PO QD, proximal colon): 39%
Summed histopathology score reduction ([6]; 3 mg/kg PO QD, proximal colon): 28%
Colon hyperplasia reduction ([6]; 3 mg/kg PO QD, total colon): 49%
Colon inflammation reduction ([6]; 3 mg/kg PO QD, total colon): 30%
Gland loss reduction ([6]; 3 mg/kg PO QD, total colon): 38%
Mucosal thickness reduction ([6]; 3 mg/kg PO QD, total colon): 51%
Neutrophil score reduction ([6]; 3 mg/kg PO QD, total colon): 54%
PMN percent reduction ([6]; 3 mg/kg PO QD, total colon): 47%
Summed histopathology score reduction ([6]; 3 mg/kg PO QD, total colon): 40%
Colon weight reduction toward normal ([6]; 3 mg/kg PO QD, vs vehicle): 50%
Colon inflammation reduction ([6]; 10 mg/kg PO QD, distal colon): 28%
Colon mucosal thickness reduction ([6]; 10 mg/kg PO QD, distal colon): 46%
Gland loss reduction ([6]; 10 mg/kg PO QD, distal colon): 39%
Hyperplasia reduction ([6]; 10 mg/kg PO QD, distal colon): 46%
Summed histopathology score reduction ([6]; 10 mg/kg PO QD, distal colon): 38%
Colon edema reduction ([6]; 10 mg/kg PO QD, proximal colon): 68%
Colon inflammation reduction ([6]; 10 mg/kg PO QD, proximal colon): 17%
Erosion reduction ([6]; 10 mg/kg PO QD, proximal colon): 94%
Gland loss reduction ([6]; 10 mg/kg PO QD, proximal colon): 26%
Hyperplasia reduction ([6]; 10 mg/kg PO QD, proximal colon): 45%
Mucosal thickness reduction ([6]; 10 mg/kg PO QD, proximal colon): 43%
Neutrophil score reduction ([6]; 10 mg/kg PO QD, proximal colon): 45%
PMN percent reduction ([6]; 10 mg/kg PO QD, proximal colon): 37%
Summed histopathology score reduction ([6]; 10 mg/kg PO QD, proximal colon): 31%
Absolute body weight ([6]; 10 mg/kg PO QD, significant days 27-31, 35, 39, vs vehicle): significantly (by ANOVA) increased
Colon edema reduction ([6]; 10 mg/kg PO QD, total colon): 60%
Colon hyperplasia reduction ([6]; 10 mg/kg PO QD, total colon): 46%
Colon inflammation reduction ([6]; 10 mg/kg PO QD, total colon): 24%
Gland loss reduction ([6]; 10 mg/kg PO QD, total colon): 33%
Mucosal thickness reduction ([6]; 10 mg/kg PO QD, total colon): 45%
Neutrophil score reduction ([6]; 10 mg/kg PO QD, total colon): 44%
PMN percent reduction ([6]; 10 mg/kg PO QD, total colon): 37%
Summed histopathology score reduction ([6]; 10 mg/kg PO QD, total colon): 35%
Colon weight reduction toward normal ([6]; 10 mg/kg PO QD, vs vehicle): 51%
